Results from patent US9247759B2, “Identification of human T2R receptors that respond to bitter compounds that elicit the bitter taste in compositions, and the use thereof in assays to identify compounds that inhibit (block) bitter taste in compositions and use thereof” (SENOMYX, INC., priority 2007, dated 2016).
Like-named read-outs stand apart in the source and are kept apart here.

Legend:
[1] = test system: hT2R44; assay: hT2R panel inhibition, transient HEK293 G16g44, agonist Denatonium 0.5 μM; type: cell-based, human; details: compound at 25 μM; for screening result against bitter receptor 44: receptor activated to EC80 with the corresponding agonist
In short: (§1)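 The test compound's selectivity was profiled by challenging each transiently expressed human T2R with its activating bitter ligand at an EC80 concentration, inhibition being the reduction of receptor signalling it produced.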

[2] = target: hT2R3 (Homo sapiens (Human), UniProt Q9NYW6); assay: hT2R panel inhibition, transient HEK293 G16g44, agonist Chloroquine pH6.5 50 μM; type: cell-based; details: HEK293, compound at 25 μM
Chain of hT2R3 (Q9NYW6 whole entry): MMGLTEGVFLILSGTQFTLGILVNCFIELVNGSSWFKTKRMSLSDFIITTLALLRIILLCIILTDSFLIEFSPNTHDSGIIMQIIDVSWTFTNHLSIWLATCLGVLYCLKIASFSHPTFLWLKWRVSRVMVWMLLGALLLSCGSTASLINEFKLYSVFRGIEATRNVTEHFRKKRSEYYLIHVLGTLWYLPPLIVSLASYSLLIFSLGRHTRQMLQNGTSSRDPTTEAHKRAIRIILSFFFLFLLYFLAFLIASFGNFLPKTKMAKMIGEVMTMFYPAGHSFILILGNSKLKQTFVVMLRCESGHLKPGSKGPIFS
In short: as §1

[3] = target: hT2R9 (Homo sapiens (Human), UniProt Q9NYW1); assay: hT2R panel inhibition, transient HEK293 G16g44, agonist Ofloxacin 1 mM; type: cell-based; details: HEK293, compound at 25 μM
Chain of hT2R9 (Q9NYW1 whole entry): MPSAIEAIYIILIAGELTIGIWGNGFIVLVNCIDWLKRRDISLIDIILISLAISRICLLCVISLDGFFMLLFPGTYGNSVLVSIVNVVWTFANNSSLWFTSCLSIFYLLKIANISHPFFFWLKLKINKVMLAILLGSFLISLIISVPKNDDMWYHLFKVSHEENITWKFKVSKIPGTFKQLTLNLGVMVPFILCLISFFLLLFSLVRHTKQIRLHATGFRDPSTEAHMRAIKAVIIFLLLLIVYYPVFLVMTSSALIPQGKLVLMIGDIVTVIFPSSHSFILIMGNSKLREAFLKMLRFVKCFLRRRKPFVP
In short: as §1

[4] = target: hT2R8 (Homo sapiens (Human), UniProt Q9NYW2); assay: hT2R panel inhibition, transient HEK293 G16g44, agonist Andrographolide 0.5 mM; type: cell-based; details: HEK293, compound at 25 μM
Chain of hT2R8 (Q9NYW2 whole entry): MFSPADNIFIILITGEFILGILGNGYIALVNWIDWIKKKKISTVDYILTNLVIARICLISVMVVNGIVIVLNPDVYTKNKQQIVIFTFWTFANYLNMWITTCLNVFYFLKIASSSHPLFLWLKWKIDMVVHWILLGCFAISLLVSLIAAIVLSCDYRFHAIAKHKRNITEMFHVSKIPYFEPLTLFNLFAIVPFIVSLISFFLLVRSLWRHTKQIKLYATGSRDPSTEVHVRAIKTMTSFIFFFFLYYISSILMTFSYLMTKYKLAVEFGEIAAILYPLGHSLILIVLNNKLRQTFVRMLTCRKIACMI
Description: Specifically, in order to evaluate the inhibitory selectivity of the Compound C compound, this compound was tested against 22 human T2Rs which were deorphaned by Senomyx. These receptors and the bitter ligands that activate these human T2Rs are reported in earlier patent applications which are incorporated by reference herein. These 22 human T2Rs are hT2R1, 3, 4, 5, 7, 8, 9, 10, 13, 14, 16, 44, 51, 54, 55, 61, 63, 64, 65, 67, 71 and 75. The amino acid and nucleic acid sequences of all of these T2Rs may be found in these earlier patent applications. These human T2Rs were each individually transiently transfected into HEK293 cells that stably express the promiscuous G protein G16g44 and functional assays were effected using these receptors as disclosed in these same patent applications. […] The ligands were used at EC80 concentration levels. The list of bitter ligands utilized and the tested ligand concentrations are contained in Table 5 of this example.

[5] = target: hT2R14 (Homo sapiens (Human), UniProt Q9NYV8); assay: hT2R panel inhibition, transient HEK293 G16g44, agonist Aristolochic Acid 2 μM; type: cell-based; details: HEK293, compound at 25 μM
Chain of hT2R14 (Q9NYV8 whole entry): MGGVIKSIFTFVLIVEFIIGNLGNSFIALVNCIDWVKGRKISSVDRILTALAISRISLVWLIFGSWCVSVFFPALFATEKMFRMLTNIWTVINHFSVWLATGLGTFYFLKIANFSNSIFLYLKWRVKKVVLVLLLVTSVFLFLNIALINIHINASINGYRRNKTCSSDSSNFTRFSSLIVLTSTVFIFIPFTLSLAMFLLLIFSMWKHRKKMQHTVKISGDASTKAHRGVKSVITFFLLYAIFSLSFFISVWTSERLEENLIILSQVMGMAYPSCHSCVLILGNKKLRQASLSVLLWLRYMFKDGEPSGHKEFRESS
In short: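 Each hT2R was transiently transfected into HEK293 cells stably expressing G16g44 and assayed functionally for inhibition of agonist response. Agonists were applied at EC80: andrographolide at 0.5 mM for hT2R8 and aristolochic acid at 2 μM for hT2R14.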

[6] = test system: hT2R54; assay: hT2R panel inhibition, transient HEK293 G16g44, agonist Ranitidine 5 mM; type: cell-based, human; details: compound at 25 μM
In short: as §1

[7] = target: hT2R16 (Homo sapiens (Human), UniProt Q9NYV7); assay: hT2R panel inhibition, transient HEK293 G16g44, agonist Salicin 1 mM; type: cell-based; details: HEK293, compound at 25 μM
Chain of hT2R16 (Q9NYV7 whole entry): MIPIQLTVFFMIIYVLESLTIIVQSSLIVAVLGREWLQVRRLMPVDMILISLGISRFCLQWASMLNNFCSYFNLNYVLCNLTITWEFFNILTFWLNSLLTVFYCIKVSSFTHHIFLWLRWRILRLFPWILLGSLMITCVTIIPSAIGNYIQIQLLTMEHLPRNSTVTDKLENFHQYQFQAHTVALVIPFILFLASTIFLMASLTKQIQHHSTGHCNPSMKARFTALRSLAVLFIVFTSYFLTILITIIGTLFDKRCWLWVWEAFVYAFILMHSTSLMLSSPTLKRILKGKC
In short: as §1

[8] = test system: hT2R65; assay: hT2R panel inhibition, transient HEK293 G16g44, agonist Oleuropein 1 mM; type: cell-based, human; details: compound at 25 μM
In short: as §1

[9] = target: hT2R5 (Homo sapiens (Human), UniProt Q9NYW4); assay: hT2R panel inhibition, transient HEK293 G16g44, agonist Picoline 10 mM; type: cell-based; details: HEK293, compound at 25 μM
Chain of hT2R5 (Q9NYW4 whole entry): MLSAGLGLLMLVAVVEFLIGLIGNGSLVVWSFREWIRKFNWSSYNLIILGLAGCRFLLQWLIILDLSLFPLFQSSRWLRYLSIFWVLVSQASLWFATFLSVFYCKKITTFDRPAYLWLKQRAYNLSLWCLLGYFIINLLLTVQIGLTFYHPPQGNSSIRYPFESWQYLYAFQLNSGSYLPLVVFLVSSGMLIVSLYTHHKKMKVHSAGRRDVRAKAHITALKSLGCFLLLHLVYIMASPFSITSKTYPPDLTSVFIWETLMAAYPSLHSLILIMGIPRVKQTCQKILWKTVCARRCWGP
In short: as §1

[10] = target: hT2R51 (Homo sapiens (Human), UniProt P59533); assay: hT2R panel inhibition, transient HEK293 G16g44, agonist Prop 2.5 μM; type: cell-based; details: HEK293, compound at 25 μM
Chain of hT2R51 (P59533 whole entry): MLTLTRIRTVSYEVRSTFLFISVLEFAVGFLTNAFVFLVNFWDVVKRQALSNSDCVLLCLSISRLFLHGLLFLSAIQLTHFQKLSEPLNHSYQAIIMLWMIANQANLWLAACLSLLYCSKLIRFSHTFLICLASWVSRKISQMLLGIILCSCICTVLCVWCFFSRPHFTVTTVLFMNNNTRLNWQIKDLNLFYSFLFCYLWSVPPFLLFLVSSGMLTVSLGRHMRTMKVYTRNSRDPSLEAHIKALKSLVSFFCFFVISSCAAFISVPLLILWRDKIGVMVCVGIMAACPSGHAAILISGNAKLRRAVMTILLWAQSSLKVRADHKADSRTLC
In short: as §1

[11] = test system: hT2R63; assay: hT2R panel inhibition, transient HEK293 G16g44, agonist Caffeine 1 mM or Andrographolide 100 μM; type: cell-based, human; details: compound at 25 μM
In short: as §1

[12] = target: hT2R75 (Homo sapiens (Human), UniProt P59540); assay: hT2R panel inhibition, transient HEK293 G16g44, agonist Strychnine 1 μM; type: cell-based; details: HEK293, read-out: screening result against bitter receptor 75, compound at 25 μM; receptor activated to EC80 with the corresponding agonist
Chain of hT2R75 (P59540 whole entry): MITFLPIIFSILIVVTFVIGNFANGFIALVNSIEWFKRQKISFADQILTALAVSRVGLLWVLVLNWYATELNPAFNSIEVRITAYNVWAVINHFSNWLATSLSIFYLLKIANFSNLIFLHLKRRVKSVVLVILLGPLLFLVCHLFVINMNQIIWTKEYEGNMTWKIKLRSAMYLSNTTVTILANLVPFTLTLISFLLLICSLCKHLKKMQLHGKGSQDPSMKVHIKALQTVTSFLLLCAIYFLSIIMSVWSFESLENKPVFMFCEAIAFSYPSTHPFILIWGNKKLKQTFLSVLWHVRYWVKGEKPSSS

[13] = target: hT2R64 (Homo sapiens (Human), UniProt P59538); assay: hT2R panel inhibition, transient HEK293 G16g44, agonist Aristolochic Acid 1 μM; type: cell-based; details: HEK293, compound at 25 μM
Chain of hT2R64 (P59538 whole entry): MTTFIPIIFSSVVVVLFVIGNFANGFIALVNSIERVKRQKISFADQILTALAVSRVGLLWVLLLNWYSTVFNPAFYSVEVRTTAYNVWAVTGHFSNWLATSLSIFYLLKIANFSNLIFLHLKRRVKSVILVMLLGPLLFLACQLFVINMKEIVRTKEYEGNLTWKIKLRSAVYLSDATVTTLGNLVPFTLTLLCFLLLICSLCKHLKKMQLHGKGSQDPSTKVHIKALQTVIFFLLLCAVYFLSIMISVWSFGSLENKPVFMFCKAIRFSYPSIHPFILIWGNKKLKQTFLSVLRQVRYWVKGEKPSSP
In short: as §1

[14] = test system: hT2R67; assay: hT2R panel inhibition, transient HEK293 G16g44, agonist Andrographolide 5 μM; type: cell-based, human; details: compound at 25 μM
In short: as §1

[15] = target: hT2R61 (Homo sapiens (Human), UniProt P59537); assay: hT2R panel inhibition, transient HEK293 G16g44, agonist Aristolochic Acid 25 nM; type: cell-based; details: HEK293, compound at 25 μM
Chain of hT2R61 (P59537 whole entry): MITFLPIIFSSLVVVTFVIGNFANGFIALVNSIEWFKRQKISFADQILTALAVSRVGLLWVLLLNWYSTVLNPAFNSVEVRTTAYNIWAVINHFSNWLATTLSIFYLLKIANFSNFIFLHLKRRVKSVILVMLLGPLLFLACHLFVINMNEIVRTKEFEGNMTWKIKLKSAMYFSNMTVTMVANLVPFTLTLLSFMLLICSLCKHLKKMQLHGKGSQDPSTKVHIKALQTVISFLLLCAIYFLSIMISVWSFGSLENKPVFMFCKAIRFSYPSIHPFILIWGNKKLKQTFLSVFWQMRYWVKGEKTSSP
In short: as §1

[16] = target: hT2R7 (Homo sapiens (Human), UniProt Q9NYW3); assay: hT2R panel inhibition, transient HEK293 G16g44, agonist Chloroquine pH6.5 10 mM; type: cell-based; details: HEK293, compound at 25 μM
Chain of hT2R7 (Q9NYW3 whole entry): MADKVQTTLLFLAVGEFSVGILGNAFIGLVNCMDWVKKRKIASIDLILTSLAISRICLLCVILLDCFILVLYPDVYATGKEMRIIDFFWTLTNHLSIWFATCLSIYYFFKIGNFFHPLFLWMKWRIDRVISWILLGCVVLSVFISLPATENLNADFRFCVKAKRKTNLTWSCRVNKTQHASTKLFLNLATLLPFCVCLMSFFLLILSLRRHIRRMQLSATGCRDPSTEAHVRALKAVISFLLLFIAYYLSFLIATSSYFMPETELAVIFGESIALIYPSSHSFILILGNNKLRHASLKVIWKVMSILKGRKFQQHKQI
In short: as §1

[17] = test system: hT2R55; assay: hT2R panel inhibition, transient HEK293 G16g44, agonist Cinchonine 150 μM; type: cell-based, human; details: compound at 25 μM
In short: as §1

[18] = target: hT2R71 (Homo sapiens (Human), UniProt P59536); assay: hT2R panel inhibition, transient HEK293 G16g44, agonist Picric Acid 10 μM; type: cell-based; details: HEK293, compound at 25 μM
Chain of hT2R71 (P59536 whole entry): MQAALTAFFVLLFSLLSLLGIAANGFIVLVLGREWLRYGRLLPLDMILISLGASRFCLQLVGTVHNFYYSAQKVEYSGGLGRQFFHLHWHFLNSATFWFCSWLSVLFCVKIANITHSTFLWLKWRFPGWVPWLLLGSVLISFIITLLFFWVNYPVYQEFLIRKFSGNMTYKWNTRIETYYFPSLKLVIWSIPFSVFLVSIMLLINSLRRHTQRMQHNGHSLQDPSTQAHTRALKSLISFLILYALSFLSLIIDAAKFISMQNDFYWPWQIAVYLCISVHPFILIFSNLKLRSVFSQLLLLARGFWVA
In short: as §1

[19] = target: hT2R10 (Homo sapiens (Human), UniProt Q9NYW0); assay: hT2R panel inhibition, transient HEK293 G16g44, agonist Strychnine 50 μM; type: cell-based
Chain of hT2R10 (Q9NYW0 whole entry): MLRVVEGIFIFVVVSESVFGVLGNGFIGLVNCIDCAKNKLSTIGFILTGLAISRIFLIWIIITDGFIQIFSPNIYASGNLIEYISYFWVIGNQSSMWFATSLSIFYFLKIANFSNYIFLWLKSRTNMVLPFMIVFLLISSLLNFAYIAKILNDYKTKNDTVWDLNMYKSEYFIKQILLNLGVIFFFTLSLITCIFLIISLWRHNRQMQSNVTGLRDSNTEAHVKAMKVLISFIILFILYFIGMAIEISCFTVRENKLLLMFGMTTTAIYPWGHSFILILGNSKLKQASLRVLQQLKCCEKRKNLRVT

[20] = target: hT2R4 (Homo sapiens (Human), UniProt Q9NYW5); assay: hT2R panel inhibition, transient HEK293 G16g44, agonist Chloroquine pH6.5 5 mM; type: cell-based; details: HEK293, compound at 25 μM; receptor activated to EC80 with agonist; read-out: inhibition of bitter receptor 4
Chain of hT2R4 (Q9NYW5 whole entry): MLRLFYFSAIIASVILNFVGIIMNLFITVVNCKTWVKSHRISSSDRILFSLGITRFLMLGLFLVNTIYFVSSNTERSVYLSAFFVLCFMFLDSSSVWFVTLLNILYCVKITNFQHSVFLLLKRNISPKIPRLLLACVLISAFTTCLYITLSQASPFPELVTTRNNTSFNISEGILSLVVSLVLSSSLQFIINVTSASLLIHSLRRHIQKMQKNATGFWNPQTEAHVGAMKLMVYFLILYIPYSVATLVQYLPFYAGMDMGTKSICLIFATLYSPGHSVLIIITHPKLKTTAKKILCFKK
In short: as §1

[21] = target: hT2R13 (Homo sapiens (Human), UniProt Q9NYV9); assay: hT2R panel inhibition, transient HEK293 G16g44, agonist Oxyphenonium 1 mM; type: cell-based; details: HEK293, compound at 25 μM; receptor activated to EC80 with agonist; read-out: inhibition of bitter receptor 13
Chain of hT2R13 (Q9NYV9 whole entry): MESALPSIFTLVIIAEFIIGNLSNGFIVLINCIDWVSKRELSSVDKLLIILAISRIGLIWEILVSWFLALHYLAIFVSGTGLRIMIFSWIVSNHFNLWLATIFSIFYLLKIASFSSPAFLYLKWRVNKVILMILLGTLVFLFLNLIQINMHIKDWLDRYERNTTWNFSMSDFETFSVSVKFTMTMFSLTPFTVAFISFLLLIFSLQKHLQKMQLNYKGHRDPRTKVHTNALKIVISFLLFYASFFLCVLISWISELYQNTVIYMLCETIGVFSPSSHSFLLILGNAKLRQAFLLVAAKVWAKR
In short: as §1

[22] = receptor activated to EC80 with the corresponding agonist, read-out: screening result against bitter receptor 3
[23] = receptor activated to EC80 with the corresponding agonist, read-out: screening result against bitter receptor 8
[24] = receptor activated to EC80 with the corresponding agonist
[25] = receptor activated to EC80 with agonist

COc1ccc(CN(Cc2ccc(C)cc2)S(=O)(=O)c2ccc(C(=O)O)cc2)cc1 [Example 5-66, 4-(N-(4-methoxybenzyl)-N-(4-methylbenzyl)sulfamoyl)benzoic acid]
screening result against bitter receptor 44 [1]: + (20% to 40% inhibition = +) | inhibition at 25 µM [2, 22]: 20 to 40% | inhibition at 25 µM ([3]; receptor activated to EC80 with the corresponding agonist, read-out: screening result against bitter receptor 9): 20 to 40% | inhibition at 25 µM [4, 23]: 20 to 40%

Cc1ccc(CN(Cc2ccccc2)S(=O)(=O)c2ccc(C(=O)O)cc2)cc1 [Example 5-70, 4-(N-benzyl-N-(4-methylbenzyl)sulfamoyl)benzoic acid]
inhibition at 25 µM ([5]; receptor activated to EC80 with the corresponding agonist, read-out: screening result against bitter receptor 14): 60 to 80% | screening result against bitter receptor 54 [6, 24]: ++ (40% to 60% inhibition = ++) | screening result against bitter receptor 44 [1]: + (20% to 40% inhibition = +) | inhibition at 25 µM ([7]; receptor activated to EC80 with the corresponding agonist, read-out: screening result against bitter receptor 16): 40 to 60% | screening result against bitter receptor 65 [8, 24]: ++ (40% to 60% inhibition = ++) | inhibition at 25 µM [2, 22]: 40 to 60% | inhibition at 25 µM ([9]; receptor activated to EC80 with the corresponding agonist, read-out: screening result against bitter receptor 5): 40 to 60% | inhibition at 25 µM ([10]; receptor activated to EC80 with the corresponding agonist, read-out: screening result against bitter receptor 51): 40 to 60% | screening result against bitter receptor 63 [11, 24]: ++++ (80% or greater inhibition = ++++) | inhibition at 25 µM [12]: 20 to 40% | inhibition at 25 µM [4, 23]: 20 to 40% | inhibition at 25 µM ([13]; receptor activated to EC80 with the corresponding agonist, read-out: screening result against bitter receptor 64): 20 to 40% | screening result against bitter receptor 67 [14, 24]: + (20% to 40% inhibition = +) | inhibition at 25 µM ([15]; receptor activated to EC80 with the corresponding agonist, read-out: screening result against bitter receptor 61): 40 to 60% | inhibition at 25 µM ([16]; receptor activated to EC80 with the corresponding agonist, read-out: screening result against bitter receptor 7): 20 to 40% | screening result against bitter receptor 55 [17, 24]: +++ (60% to 80% inhibition = +++) | inhibition at 25 µM ([18]; receptor activated to EC80 with the corresponding agonist, read-out: screening result against bitter receptor 71): 40 to 60% | inhibition at 25 µM ([19]; HEK293, read-out: screening result against bitter receptor 10, compound at 25 μM, receptor activated to EC80 with the corresponding agonist): 40 to 60%

CC(C)Oc1ccc(CN(Cc2ccccc2)S(=O)(=O)c2ccc(C(=O)O)cc2)cc1 [Example 5-110, 4-(N-benzyl-N-(4-isopropoxybenzyl)sulfamoyl)benzoic acid]
inhibition at 25 µM ([5]; receptor activated to EC80 with agonist, read-out: inhibition of bitter receptor 14): > 80% | inhibition of bitter receptor 54 [6, 25]: + (20% to 40% inhibition = +) | inhibition of bitter receptor 44 [1, 25]: +++ (60% to 80% inhibition = +++) | inhibition at 25 µM [20]: 60 to 80% | inhibition at 25 µM ([7]; receptor activated to EC80 with agonist, read-out: inhibition of bitter receptor 16): 20 to 40% | inhibition of bitter receptor 65 [8, 25]: +++ (60% to 80% inhibition = +++) | inhibition at 25 µM ([2]; receptor activated to EC80 with agonist, read-out: inhibition of bitter receptor 3): 40 to 60% | inhibition at 25 µM ([9]; receptor activated to EC80 with agonist, read-out: inhibition of bitter receptor 5): 20 to 40% | inhibition at 25 µM ([3]; receptor activated to EC80 with agonist, read-out: inhibition of bitter receptor 9): 20 to 40% | inhibition at 25 µM ([10]; receptor activated to EC80 with agonist, read-out: inhibition of bitter receptor 51): 40 to 60% | inhibition of bitter receptor 63 [11, 25]: +++ (60% to 80% inhibition = +++) | inhibition at 25 µM [21]: 20 to 40% | inhibition at 25 µM ([4]; receptor activated to EC80 with agonist, read-out: inhibition of bitter receptor 8): 20 to 40% | inhibition at 25 µM ([13]; receptor activated to EC80 with agonist, read-out: inhibition of bitter receptor 64): 60 to 80% | inhibition of bitter receptor 67 [14, 25]: + (20% to 40% inhibition = +) | inhibition at 25 µM ([15]; receptor activated to EC80 with agonist, read-out: inhibition of bitter receptor 61): > 80% | inhibition at 25 µM ([16]; receptor activated to EC80 with agonist, read-out: inhibition of bitter receptor 7): 40 to 60% | inhibition of bitter receptor 55 [17, 25]: ++++ (80% or greater inhibition = ++++) | inhibition at 25 µM ([18]; receptor activated to EC80 with agonist, read-out: inhibition of bitter receptor 71): 60 to 80% | inhibition at 25 µM ([19]; HEK293, read-out: inhibition of bitter receptor 10, compound at 25 μM, receptor activated to EC80 with agonist): 40 to 60%
